Results from ChEMBL document CHEMBL1201862, “PubChem BioAssay data set” (2004).
Values belong to the compound of their own block, whether it stands above or below them. Calls of active or inactive are those of the source.

Legend:
Coagulation factor XII = target: T1, Coagulation factor XII (Homo sapiens, UniProt P00748); assay type: functional;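 further: activated factor XIIa alpha cleaving a fluorogenic AMC peptide substrate; inhibitor potency from loss of enzyme activity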
T1 sequence (P00748 whole entry): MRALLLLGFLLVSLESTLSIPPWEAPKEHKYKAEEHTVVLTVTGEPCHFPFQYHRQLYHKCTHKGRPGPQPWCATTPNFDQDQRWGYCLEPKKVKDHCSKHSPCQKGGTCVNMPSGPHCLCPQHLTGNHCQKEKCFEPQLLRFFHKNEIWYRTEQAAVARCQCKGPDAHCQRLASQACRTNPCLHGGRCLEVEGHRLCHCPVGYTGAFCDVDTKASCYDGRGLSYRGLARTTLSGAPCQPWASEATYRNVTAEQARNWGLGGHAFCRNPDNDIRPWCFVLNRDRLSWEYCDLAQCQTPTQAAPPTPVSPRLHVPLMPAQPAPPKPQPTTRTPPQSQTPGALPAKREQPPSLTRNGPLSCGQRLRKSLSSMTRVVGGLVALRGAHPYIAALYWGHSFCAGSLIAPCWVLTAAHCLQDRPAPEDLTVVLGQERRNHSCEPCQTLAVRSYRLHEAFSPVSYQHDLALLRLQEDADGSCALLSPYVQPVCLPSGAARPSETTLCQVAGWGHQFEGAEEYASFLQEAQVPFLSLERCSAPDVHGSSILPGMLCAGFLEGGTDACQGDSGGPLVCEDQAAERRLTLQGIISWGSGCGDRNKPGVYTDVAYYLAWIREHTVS

[1] = HIV-1 Vif–A3G interaction blockers – biochemical, TR-FRET, GST-Vif 1-94, biotin-A3G peptide, dose response retest, primary screen (AID 1117319); assay type: functional;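 further: TR-FRET signal of purified GST-Vif binding a biotinylated A3G peptide; inhibitors lower the FRET signal by blocking Vif and A3G binding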
[2] = Trypanosoma cruzi growth suppression in host cells – NIH3T3 host cells, beta-gal luminescence, confirmation (AID 2044); assay type: functional, cell-based;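 further: intracellular parasites grown in NIH/3T3 mouse fibroblasts as host cells; luminescent beta-galactosidase reporter signal from transgenic T. cruzi replicating inside host cells; inhibitors lower the luminescence signal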
INS1 = test: INS-1E survival protection against cytokine death – cell-based, luminescence, retest, dose response (AID 449756); assay type: functional; conditions: Rattus norvegicus;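 further: cell death triggered by IL-1 beta plus TNF-alpha plus IFN-gamma mixture; protective hits raise ATP signal compared with cytokine alone wells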
[3] = NIH3T3 cell viability loss – ATP luminescence, mouse fibroblasts, counter-screen, dose response (AID 2010); assay type: functional, cell-based;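 further: cells exposed to compound for about 90 hours before reading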
[4] = viability loss in Vero cells – cytotoxicity control for Vif-APOBEC3G degradation inhibitor project, dose response (AID 1117358); assay type: functional; conditions: Vero
fMet-Leu-Phe receptor = fMet-Leu-Phe receptor (Homo sapiens, UniProt P21462); test: formyl peptide receptor binders – dose response (AID 519); assay type: functional
Sequence of fMet-Leu-Phe receptor (P21462 whole entry): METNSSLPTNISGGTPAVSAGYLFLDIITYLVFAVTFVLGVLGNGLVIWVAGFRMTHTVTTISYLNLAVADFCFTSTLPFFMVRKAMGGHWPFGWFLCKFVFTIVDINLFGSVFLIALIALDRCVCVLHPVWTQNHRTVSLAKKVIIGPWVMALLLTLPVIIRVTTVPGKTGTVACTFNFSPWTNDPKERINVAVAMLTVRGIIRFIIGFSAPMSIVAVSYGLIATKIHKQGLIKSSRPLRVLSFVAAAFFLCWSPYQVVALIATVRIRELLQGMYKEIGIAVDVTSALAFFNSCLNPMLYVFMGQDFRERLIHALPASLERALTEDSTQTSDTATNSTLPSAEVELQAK

[5] = target: Glutathione-S-transferase (Schistosoma japonicum, UniProt Q26513); test: GST-antibody interaction or FRET quenching – biochemical, TR-FRET, artefact control for Vif-APOBEC3G degradation inhibitor project, dose response (AID 1117362); assay type: functional
Sequence of Glutathione-S-transferase (Q26513 whole entry): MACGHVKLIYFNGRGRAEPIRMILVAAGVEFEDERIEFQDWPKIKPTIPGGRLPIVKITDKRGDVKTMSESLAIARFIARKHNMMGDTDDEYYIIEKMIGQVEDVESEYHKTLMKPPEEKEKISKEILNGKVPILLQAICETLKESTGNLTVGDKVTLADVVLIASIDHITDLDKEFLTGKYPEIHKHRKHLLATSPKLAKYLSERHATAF

Cytochrome P450 3A4 = Cytochrome P450 3A4 (Homo sapiens, UniProt P08684);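 further: CYP3A4 tested as one member of a cytochrome P450 panel screen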
Sequence of Cytochrome P450 3A4 (P08684 whole entry): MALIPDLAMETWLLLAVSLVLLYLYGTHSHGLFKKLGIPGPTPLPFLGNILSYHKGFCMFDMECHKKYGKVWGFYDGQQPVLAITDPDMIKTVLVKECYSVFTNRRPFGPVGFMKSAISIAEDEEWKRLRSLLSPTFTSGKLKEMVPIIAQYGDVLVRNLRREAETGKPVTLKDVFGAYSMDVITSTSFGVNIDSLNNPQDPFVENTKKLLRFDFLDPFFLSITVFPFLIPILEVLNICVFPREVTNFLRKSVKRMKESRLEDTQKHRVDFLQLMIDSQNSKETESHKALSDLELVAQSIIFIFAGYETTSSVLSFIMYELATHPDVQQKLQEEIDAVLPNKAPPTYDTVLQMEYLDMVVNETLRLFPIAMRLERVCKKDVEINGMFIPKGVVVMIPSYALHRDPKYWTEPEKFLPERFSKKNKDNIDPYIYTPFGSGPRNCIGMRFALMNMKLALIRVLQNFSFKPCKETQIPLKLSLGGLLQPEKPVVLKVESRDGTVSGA

[6] = target: NAD-dependent protein deacylase sirtuin-5, mitochondrial (Homo sapiens, UniProt Q9NXA8); test: sirtuin-5 deacylation blockers, concentration series – biochemical, fluorescence imaging, cherry-pick, set 5, dose response (AID 720591);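 further: desuccinylation of succinyl peptide AMC substrate read as fluorescence after trypsin release; potency of inhibitors that lower fluorescence and may act on trypsin instead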
Sequence of NAD-dependent protein deacylase sirtuin-5, mitochondrial (Q9NXA8 whole entry, the tested form may be a part): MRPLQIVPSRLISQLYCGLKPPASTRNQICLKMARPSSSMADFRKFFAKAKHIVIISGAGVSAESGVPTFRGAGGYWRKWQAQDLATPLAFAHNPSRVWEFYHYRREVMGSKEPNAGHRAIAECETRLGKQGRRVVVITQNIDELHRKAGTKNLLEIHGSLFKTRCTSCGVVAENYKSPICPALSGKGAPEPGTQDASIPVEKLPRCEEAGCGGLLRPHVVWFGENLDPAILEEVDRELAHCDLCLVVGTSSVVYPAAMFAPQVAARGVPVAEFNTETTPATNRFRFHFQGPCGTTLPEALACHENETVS

[7] = target: Disintegrin and metalloproteinase domain-containing protein 17 (Homo sapiens, UniProt P78536); test: exosite inhibitors of ADAM17, dose response, biochemical (AID 743260)
Sequence of Disintegrin and metalloproteinase domain-containing protein 17 (P78536 whole entry, the tested form may be a part): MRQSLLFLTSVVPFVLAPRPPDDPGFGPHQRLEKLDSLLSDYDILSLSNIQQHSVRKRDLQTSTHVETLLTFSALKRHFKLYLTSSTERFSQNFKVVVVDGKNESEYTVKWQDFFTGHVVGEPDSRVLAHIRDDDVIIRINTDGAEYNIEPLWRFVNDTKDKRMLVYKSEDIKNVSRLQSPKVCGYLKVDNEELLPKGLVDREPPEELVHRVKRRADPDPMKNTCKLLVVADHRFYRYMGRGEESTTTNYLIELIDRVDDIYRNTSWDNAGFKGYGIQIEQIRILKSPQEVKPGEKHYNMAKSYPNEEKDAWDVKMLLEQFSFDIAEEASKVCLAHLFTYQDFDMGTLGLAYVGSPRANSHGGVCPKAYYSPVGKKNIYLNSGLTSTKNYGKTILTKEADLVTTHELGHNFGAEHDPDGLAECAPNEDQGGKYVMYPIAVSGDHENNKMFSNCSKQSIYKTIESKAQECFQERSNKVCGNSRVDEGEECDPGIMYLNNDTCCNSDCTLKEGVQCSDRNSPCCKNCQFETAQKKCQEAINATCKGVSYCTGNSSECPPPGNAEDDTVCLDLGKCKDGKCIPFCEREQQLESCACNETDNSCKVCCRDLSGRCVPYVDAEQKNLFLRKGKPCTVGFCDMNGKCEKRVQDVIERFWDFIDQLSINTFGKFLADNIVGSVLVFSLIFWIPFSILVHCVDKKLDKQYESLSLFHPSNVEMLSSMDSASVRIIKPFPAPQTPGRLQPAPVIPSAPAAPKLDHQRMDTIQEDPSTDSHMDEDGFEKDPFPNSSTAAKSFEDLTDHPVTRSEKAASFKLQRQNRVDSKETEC

[8] = inhibition of ADAM10 peptide cleavage – biochemical, FRET peptide substrate, recombinant human ADAM10, selectivity assay for ADAM17 exosite inhibitor project, dose response (AID 743259);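 further: ADAM10 enzyme cleaving a FRET peptide substrate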
[9] = A549 lung cell viability reduction – CellTiter-Glo luminescence, cherry-pick, cytotoxicity control, dose response (AID 743484); assay type: functional, cell-based
[10] = target: T2, Oxysterols receptor LXR-beta (Homo sapiens, UniProt P55055); test: LXR agonists, Gal4 luciferase reporter, dose response, counter-screen for ssDAF-12 agonist project, cell-based, luminescence, HEK293, S. stercoralis campaign (AID 720737); assay type: functional; conditions: read-out: IC50 (the source's name)
T2 sequence (P55055 whole entry): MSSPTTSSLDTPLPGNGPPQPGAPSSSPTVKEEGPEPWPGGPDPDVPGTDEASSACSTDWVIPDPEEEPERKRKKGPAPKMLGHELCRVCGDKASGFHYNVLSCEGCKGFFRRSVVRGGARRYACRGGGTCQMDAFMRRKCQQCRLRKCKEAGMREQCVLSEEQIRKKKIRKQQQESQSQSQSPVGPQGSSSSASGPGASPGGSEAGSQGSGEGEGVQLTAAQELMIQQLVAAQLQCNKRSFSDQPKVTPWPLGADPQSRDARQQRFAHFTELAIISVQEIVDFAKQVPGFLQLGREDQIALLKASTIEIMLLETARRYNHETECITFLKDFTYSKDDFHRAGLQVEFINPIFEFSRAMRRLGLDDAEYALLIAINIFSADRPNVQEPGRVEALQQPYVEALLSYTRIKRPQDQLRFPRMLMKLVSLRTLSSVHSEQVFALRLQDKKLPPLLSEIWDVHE

[11] = Luminescence-based cell-based high throughput dose response assay to identify activators of the DAF-12 from the parasite S. stercoralis (ssDAF-12).; assay type: functional
HeLa = test: viability loss in HeLa cells – cell-based, ATP luminescence, cherry-pick samples, cytotoxicity control, dose response (AID 687004); assay type: functional; conditions: Homo sapiens
[12] = HEK293 Cytotoxicity Assay Measured in Cell-Based System Using Plate Reader - 7071-01_Inhibitor_Dose_CherryPick_Activity_Set2.; assay type: functional
HEK293 = test: viability loss in HEK293T cells – cell-based, ATP luminescence, cherry-pick samples, cytotoxicity control, dose response (AID 687005); assay type: functional; conditions: Homo sapiens;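 further: cells exposed to compound for 48 hours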

SMILES: Cc1ccccc1N1CCN(Cc2c[nH]c3ccccc23)CC1
IC50 (Coagulation factor XII): > 50 µM (inactive) | IC50 [1]: > 100 µM (active) | EC50 [2]: 0.623 µM (active) | AC50 (INS1): 7.61 µM (active) | EC50 [3]: > 60 µM (not active) | CC50 [4]: > 40 µM (active)

SMILES: COC(=O)c1[nH]c(C)c(C(=O)C2=C(O)C(=O)N(CCN3CCOCC3)C2c2cccs2)c1C (centres undefined)
Ki (fMet-Leu-Phe receptor): 5 µM (active)

SMILES: CC1(Cc2ccccc2C#N)C(=O)Nc2cc(-c3ccccc3Cl)ccc21 (centres undefined)
AC50 [9]: > 52 µM (inactive)

SMILES: O=C(Cc1ccccc1[N+](=O)[O-])NCCc1ccc(F)cc1
EC50 [10]: > 67.6 µM (inactive) | IC50 [11]: > 67.6 µM (inactive)

SMILES: C[C@@H]1CN([C@@H](C)CO)S(=O)(=O)c2ccc(C#Cc3ccccn3)cc2O[C@H]1CN(C)Cc1ccccc1
AC50 (HeLa): 39.1 µM (active) | AC50 [12]: 7.04 µM (active) | AC50 (HEK293): 7.04 µM (active)

Second part, led by results:

IC50 [5]: > 100 µM (active) | IC50 [1]: > 100 µM (active)
SMILES: CCN1CCN(c2ccc(NC(=O)Cc3ccccc3)cc2)CC1

AC50 (Cytochrome P450 3A4): 1.41 µM (inconclusive) | AC50 [6]: > 30 µM (inactive)
SMILES: CCc1ccc(N(C(=O)c2csnn2)C(C(=O)NCc2ccccc2)c2ccco2)cc1 (centres undefined)

IC50 [7]: > 69.5 µM (inactive)
SMILES: Cc1cc(Nc2ccc(Cl)cc2)n(-c2cccc(Cl)c2)n1
IC50 [8]: 21.3 µM (inactive)
